Measurements from US20180228778A1, “COMPOSITIONS COMPRISING S1P RECEPTOR MODULATORS” (Akaal Pharma Pty Ltd, priority 2015, published 2018).

Assays:
[1] = test system: LPS challenged macrophages (RAW cells); experiment: Inhibition of pro-inflammatory cytokines and factors in LPS challenged macrophages (RAW cells); type: cell-based; conditions: in-vitro, 1 to 5 μM
Experimental: The pro-inflammatory cytokines and factors are over expressed in inflammations, cancer and other indications. Lipopolysaccharide is well known to induce various pro-inflammatory factors in the monocytes (RAW cells) and the efficacy of compound on the LPS challenged cells was evaluated for the inhibition of tumor necrosis factor (TNFα), interleukins; IL1P, IL6, and factors such as inducible nitroxide synthase (iNOS), COX-2 and vascular endothelial growth factor (VEGF).

[2] = test system: DNFB-induced delayed type hypersensitivity (DTH) in BALB/c mice; experiment: Dinitroflurobenzene (DNFB)-induced delayed type hypersensitivity (DTH) in BALB/c mice; type: in vivo; conditions: oral, twice daily 3 mg/Kg
From the text: The formulation of representative compound of formula I have shown efficacy in a delayed-type hypersensitivity (DTH) reaction model. The DTH is an expression of cell-mediated immunity and plays a major role in the pathology and chronicity of many inflammatory disorders including inflammatory skin indications. One of the most characteristic DTH phenomena is contact hypersensitivity, which is characterized by swelling and increased tissue levels of cytokines. Contact hypersensitivity (CHS) is a T cell mediated immune reaction in response to cutaneous sensitization and challenge with reactive haptens those are capable of binding directly to soluble and cell associated proteins and recognized by T cells in the context of self-MHC products. The cells that recognize antigen-protein complex in the skin are the Langerhans cells (LCs). After topical application of an allergen, Langerhans cells (LCs), the major antigen-presenting cells (APCs) for the induction of immune responses in skin, show enhanced expression of surface MHC class II molecules, and start to emigrate from the skin to regional lymph nodes where specific lymphocyte activation is thought to occur. After a second contact with the haptens, T cells are first recruited into tissues and then activated by antigen-presenting cells to produce cytokines that mediate local inflammation. Myeloperoxidase (MPO) is an enzyme exclusively present in neutrophils granules, which is commonly used as an index of granulocyte infiltration.
The effect of AKP (a compound of formula (I)) as an oral treatment was evaluated in dinitroflurobenzene (DNFB)-induced delayed type hypersensitivity (DTH) in BALB/c mice. A total of 18 female BALB/c mice were randomly assigned to 2 groups, Group 1: DTH treated with the vehicle of AKP (N=9); Group 2: DTH treated with AKP-11 twice daily dose of 3 mg/Kg (N=9). […] Ear thickness was measured with a micrometer before challenge and 24 h after challenge. Ear weight was measured 24 h after challenge. […]

[3] = test system: Phorbol ester mediated irritant contact dermatitis in Swiss albino mice; experiment: Phorbol ester mediated irritant model of contact dermatitis; type: in vivo; conditions: for reduction of ear swelling (inflammation): alone or in combination (Figure 3)
Experimental: The local application of Phorbol ester stimulates protein Kinase C (PKC), COX, LOX activity, formation of free radicals including the synthesis of mediators that regulate the production of TNF-α. The whole process mediates inflammation and hyperplasia as observed in inflammatory skin diseases such as psoriasis, eczema and others.
The topical efficacy of AKP (a compound of formula (I)) was determined in the Phorbol ester mediated irritant model of contact dermatitis. The 24 animals (Swiss albino mice) were divided in four groups (G1-4) of 6 each; G1 (control and vehicle treated), G2 (PMA challenged and vehicle treated), G3 (PMA challenged and clobetasol treated) and G4 (PMA challenged and AKP treated). The topical application of AKP (3% formulation; or as a DMSO solution) shown significant inhibition of ear inflammation (>40%; p<0.05). […] The combination reduced ear swelling (inflammation) by 43% (p[…]0.001) as shown in Figure-3 (Topical efficacy of AKP, betamethasone or combination in mice model of Phorbol ester mediated irritant contact dermatitis).

[4] = test system: mild to moderate psoriasis; experiment: Phase I clinical study of topical use in healthy volunteers and psoriasis patients; type: in vivo, human; conditions: daily for 28 days
Experimental: In a clinical study healthy volunteers and psoriasis patients with mild to moderate psoriasis were treated daily for 28 days.
The local psoriasis severity index (LPSI) was measured and recorded significant efficacy (>40%; p=0.0016; Figure-4). FIG. 4 illustrates the clinical effect of AKP.

Row | Structure (SMILES) | inhibition of pro-inflammatory cytokines and factors (TNFα, IL1P, IL6, iNOS, COX-2, VEGF) [1] | ear thickness ([2]; 24 h after DNFB challenge) | ear weight ([2]; 24 h after DNFB challenge) | tissue MPO activity (right ear) ([2]; at sacrifice) | count of lymphocytes in the blood ([3]; topical application) | inhibition of ear inflammation ([3]; topical, 3% formulation or DMSO solution, PMA challenged, p<0.05) | reduction of ear swelling (inflammation) ([3]; topical) | AKP in blood (systemic exposure) [4] | serious adverse events [4] | local psoriasis severity index (LPSI) efficacy ([4]; p=0.0016, Figure 4)
1 | CCCOc1ccc(-c2nc(-c3ccc4oc(C(N)(CO)CO)cc4c3)no2)cc1Cl [AKP] | markedly inhibited | significantly reduced | significantly reduced | significantly reduced | did not alter | > 40% | 30% | not evident in blood | no serious adverse event | > 40%
2 | C[C@H]1C[C@H]2[C@@H]3CCC4=CC(=O)C=C[C@]4(C)[C@@]3(F)[C@@H](O)C[C@]2(C)[C@@]1(O)C(=O)CO [betamethasone, reference compound] |  |  |  |  |  |  | 30% |  |  | 
